Reference: PMC7457137, “An Integrated Pharmacokinetic Study of an Acanthopanax senticosus Extract Preparation by Combination of Virtual Screening, Systems Pharmacology, and Multi-Component Pharmacokinetics in Rats” (Frontiers in Pharmacology, 2020)
Like-named read-outs stand apart in the source and are kept apart here.

What was measured:
[1] = Multi-component PK in rats after i.v. administration of ASEP; type: in vivo, Sprague-Dawley rats; settings: for AUC(0-t) / AUC(0-inf) / clearance / MRT last / MRT inf / Vd / half-life: male, Sprague-Dawley, rat, in vivo, iv; for AUC(0-t): read-out: AUC0-t; for AUC(0-inf): read-out: AUC0-∞; for clearance: read-out: Cl (converted); for MRT last: read-out: MRT0-t; for MRT inf: read-out: MRT0-∞; for Vd: read-out: Vd
Procedure: The animal experiments were conducted in line with the Guide for the Care and Use of Laboratory Animals (published by the USA National Institutes of Health, NIH Publication no. 85-23, revised 1996), which were approved by the Animal Care and Use Committee of the College of Animal Science (College of Bee Science), Fujian Agriculture and Forestry University (Approval Number: […]2019004). […] All rats were acclimated to the facilities and environment for 7 days before the experiments. […] The gradient elution was carried out by the mobile phase water with 0.1% formic acid (A) and methanol (B). […] The column temperature and flow rate were at 35 °C and 0.5 ml/min, resepectively. 5 μl sample solution was injected for the HPLC-MS analysis. The electrospray ionization (ESI) source conditions were as follows: block heating temperature was kept at 400 °C; desolvation line temperature was set at 250 °C; dry gas (nitrogen) flow rate was kept at 15 L/min; and auxiliary gas (nitrogen) flow rate was 3 L/min. […] The plasma samples were separated by centrifugation, followed by storing at -20 °C before analysis. […] A DAS 3.0 software (Chinese Pharmacologic Society, Beijing, China) was used to calculate the noncompartmental PK parameters. All the results were presented as mean ± SD, and statistics analysis was done with a single-tailed Student's t test in the work.

[2] = Stability of the compounds in rat plasma (LC-MS validation); type: in vitro ADME
From the text: According to the “Guidelines for non-clinical pharmacokinetics of drugs” issued by Centre for Drug Evaluation, National Medical Products Administration, China ([Guidelines for non-clinical pharmacokinetics of drugs, 2014]), the LC-MS method was validated by linearity, limits of detection (LOD), limits of quantification (LOQ), precision, accuracy, extraction recovery, matrix effect and stability of the 6 compounds in rat plasma. In brief, blank rat plasma was obtained from the other six rats. The standard mixture solution containing the 6 compounds (with the concentration of 1 mg/ml for each) was diluted with […] to prepare a series of working solution containing the 6 compounds (concentration level: 20, 50, 100, 250, 500 ng/ml and 1, 2.5, 5, 10, 25, 50, 100, 125 150, 200 μg/ml) and IS (2.5μg/ml). For calibration curve, 10 μl of the series of working solution containing the IS (2.5μg/ml) was added into 100 μl of blank plasma. Finally, 15 data points (2, 5, 10, 25, 50, 100, 250, 500 ng/ml and 1, 2.5, 5, 10, 12.5 15, 20 μg/ml) were used in the calibration curve linearity. Calibration curves were plotted by weighted linear regression of the peak area ratio of analyte to the IS against the related nominal concentration of the analyte. LOD and LOQ were defined as the detectable concentration at which the ratio of signal to noise was about 3 and 10, respectively ([Huang et al., 2019]). […] The extraction recovery and matrix effect were also assessed at the above-mentioned three concentration levels for the 6 ingredients in the spiked plasma samples ([Huang et al., 2019]). Stability was examined under the condition of setting un-treated plasma samples at ambient temperature for 6 h, and extracted plasma samples in auto-sampler for 10 h, as well as setting plasma samples for three freeze-thaw cycles and at −80°C for 15 days ([Guidelines for non-clinical pharmacokinetics of drugs, 2014]).

insulin resistance = tested on: insulin resistance; parameters: method as in Kim et al., 2017; settings: high-fat diet-fed mice; ref Kim et al., 2017; cited from earlier work
[3] = after ASEP; ref Fan et al., 2015; cited from earlier work

**Q.** With `COc1cc(/C=C/CO)cc(OC)c1O[C@@H]1O[C@H](CO)[C@@H](O)[C@H](O)[C@H]1O` [EB, eleutheroside B] as the compound, how does the “ingredient concentration in rat plasma” value ([1]; PK time points 2.5, 5, 10, 15 and 20 min after single i.v. 3.52 ml/kg of 5 times concentrated ASEP, preliminary examination) read?
**A.** > 0.5 ng/mL

**Q.** What about the AUC(0-t) ([1]; 1.76 ml/kg) of the same compound?
**A.** 3040 ng·h/mL

**Q.** What about the AUC(0-inf) ([1]; 1.76 ml/kg) of the same compound?
**A.** 3060 ng·h/mL

**Q.** What about the clearance ([1]; 1.76 ml/kg) of the same compound?
**A.** 9.17 mL/min

**Q.** And the MRT last ([1]; 1.76 ml/kg)?
**A.** 26.4 min

**Q.** And the MRT inf ([1]; 1.76 ml/kg)?
**A.** 31.2 ± 0.6 min

**Q.** And the Vd ([1]; 1.76 ml/kg)?
**A.** 3.45 ± 0.1 L

**Q.** And the half-life ([1]; 1.76 ml/kg, read-out: t 1/2 (converted))?
**A.** 261 ± 6 min

**Q.** What about the AUC(0-t) ([1]; 3.52 ml/kg) of the same compound?
**A.** 4530 ng·h/mL

**Q.** And the AUC(0-inf) ([1]; 3.52 ml/kg)?
**A.** 4540 ng·h/mL

**Q.** And the clearance ([1]; 3.52 ml/kg)?
**A.** 12.3 mL/min

**Q.** And the MRT last ([1]; 3.52 ml/kg)?
**A.** 26.4 ± 0.6 min

**Q.** And the MRT inf ([1]; 3.52 ml/kg)?
**A.** 30 ± 1.2 min

**Q.** What about the Vd ([1]; 3.52 ml/kg) of the same compound?
**A.** 3.38 ± 1.15 L

**Q.** And the half-life ([1]; 3.52 ml/kg, read-out: t 1/2 (converted))?
**A.** 190 ± 65.4 min

**Q.** And the half-life ([1]; read-out: t 1/2 (elimination in rat blood))?
**A.** ≥ 190 min

**Q.** What about the “Stability, RE” value ([2]; extracted plasma samples, 10h in auto-sampler vials, high spiked level (HQC, 8000-16000 ng/mL)) of the same compound?
**A.** 1.92%

**Q.** What about the “Stability, RE” value ([2]; extracted plasma samples, 10h in auto-sampler vials, low spiked level (LQC, 5-30 ng/mL)) of the same compound?
**A.** 12.12%

**Q.** What about the “Stability, RE” value ([2]; extracted plasma samples, 10h in auto-sampler vials, middle spiked level (MQC, 400-1600 ng/mL)) of the same compound?
**A.** -0.97%

**Q.** And the “Stability, RE” value ([2]; rat plasma, 6h at room temperature, high spiked level (HQC, 8000-16000 ng/mL))?
**A.** -4.48%

**Q.** And the “Stability, RE” value ([2]; rat plasma, 6h at room temperature, low spiked level (LQC, 5-30 ng/mL))?
**A.** -5.59%

**Q.** And the “Stability, RE” value ([2]; rat plasma, 6h at room temperature, middle spiked level (MQC, 400-1600 ng/mL))?
**A.** -14.91%

**Q.** And the “Stability, RE” value ([2]; rat plasma, freeze-thaw stability (three cycles), high spiked level (HQC, 8000-16000 ng/mL))?
**A.** -4.14%

**Q.** What about the “Stability, RE” value ([2]; rat plasma, freeze-thaw stability (three cycles), low spiked level (LQC, 5-30 ng/mL)) of the same compound?
**A.** 4.10%

**Q.** And the “Stability, RE” value ([2]; rat plasma, freeze-thaw stability (three cycles), middle spiked level (MQC, 400-1600 ng/mL))?
**A.** -0.75%

**Q.** And the “Stability, RE” value ([2]; rat plasma, long-term stability (-80℃,15 days), high spiked level (HQC, 8000-16000 ng/mL))?
**A.** 6.11%

**Q.** And the “Stability, RE” value ([2]; rat plasma, long-term stability (-80℃,15 days), low spiked level (LQC, 5-30 ng/mL))?
**A.** -8.20%

**Q.** What about the “Stability, RE” value ([2]; rat plasma, long-term stability (-80℃,15 days), middle spiked level (MQC, 400-1600 ng/mL)) of the same compound?
**A.** -4.54%

**Q.** And the “effect on insulin resistance” value (insulin resistance)?
**A.** improve insulin resistance

**Q.** And the “PK profile in cerebral ischemia-reperfusion rats compared with the normal group” value [3]?
**A.** accumulated
